Experimental data published in patent publication US20240190841A1, “MODULATORS OF BCL6 PROTEOLYSIS AND ASSOCIATED METHODS OF USE” (Arvinas Operations, Inc., priority 2022, published 2024).

Target: T1, BCL6 (Homo sapiens, UniProt P41182)
T1 construct: endogenous in cells; host or cells: T47D breast cancer epithelial cells
Assay: Immunofluorescence high content imaging of BCL6 degradation in T47D cells
Assay type: cell-based
Conditions: T47D breast cancer epithelial cells, 3 days incubation
Experimental: Immunofluorescence Protocol for High Content Imaging of BCL6
T47D cells were seeded in 100 μl volume of RPMI11640-10% FBS in a 96-well black/clear bottom plates for adherent lines (Corning #3904).
Day 1. T47D breast cancer epithelial cells were seeded at a density so that confluence is ˜70-90% at endpoint. Cells were seeded at 7K/0.1 mL/well the morning prior to the addition of exemplary bifunctional degradation compounds.
Day 2. Prepare an 11 point 3-fold serial dilution of exemplary bifunctional compound in DMSO and aliquot an appropriate volume to cell growth media to generate a 2× final concentration of exemplary bifunctional compound. Add an equal volume (0.1 ml) of 2× exemplary bifunctional compound/media mix to previously plated cells, for a final top concentration in aqueous cell growth media of 0.1 or 1 μM. Incubate for 3 days at 37° C., 5% CO2.
Day 5 Immunofluorescence. Discard cell media. Wash wells with 200 μl of room temperature phosphate-buffered saline (PBS). Prepared 4% paraformaldehyde (PFA) from 16% PFA (Electron Microscopy Sciences #15710) using 1×PBS. Fifty μL of 4% PF was added to each well and incubate for 15 minutes at room temperature to fix the cells. The PFA was aspirated and the cells washed twice with PBS (200 μL)).
Prepared 0.1% Triton X-100 in PBS using 10% triton X-100 stock. The cells were permeabilized by adding 100 μL of the 0.1% Triton X-100 in PBS to each well to permeabilize cells and incubating at room temperature for 15 minutes. Cells were washed twice with PBS.
Prepared 3% BSA/PBS (from Thermofisher #37515 Blocker BSA in TBS, 10%), and 100 μL was added to each well. The cells were incubated for at least 1 hour at room temperature.
Prepared 1% BSA/PBS using Blocker BSA/PBS, and the 3% BSA/PBS removed from the wells.
For no primary antibody controls, 50 μL 1% BSA/PBS was added.
Primary antibody (BCL6 Rb Ab, CST-14895, Cell Signaling) was diluted 1:300 in 1% BSA/PBS using Blocker BSA/PBS.
Fifty μl of primary antibody added to all remaining wells (i.e., all wells other than the primary antibody controls) and the cells were incubated overnight at 4° C. with slow orbital movement.
Day 6. Contents of the wells was removed and the cells washed four times with 200 μL PBS. 1% BSA/PBS was prepared using Blocker BSA in PBS.
Diluted secondary antibody goat anti-Rb IgG Alexa-488 1:1000, and cell mask-Alexa-647 1:3000 in 1% BSA/PBS in the same mix. Add 50 μL to each well and incubate at room temperature for 1 hour in the dark.
Cells were washed three times with 200 μL PBS, and then incubated for 10 minutes with 100 μL Hoechst dye at 1 μg/mL (20 mM stock) to stain cell nuclei. Wells were then washed with 200 μl PBS, and 100 μL of PBS was added to each well and the plate covered plate with a plastic opaque cover. Plates were stored at […] and covered in aluminum foil until imaged.
Plates were equilibrated to room temperature prior to reading. The bottom of the plate was wiped with 70% isopropanol immediately prior to imaging.
Imaging: • 10×, 4 fields/well, include Top hat smoothing in the analysis protocol.
Supplies/Reagents: • 16% paraformaldehyde: Electron Microscopy Sciences #15710 • Hoechst: Thermofisher #62249 • Blocker BSA in PBS, 10%: Thermofisher #37515 • Blocker BSA in TBS, 10%: Thermofisher #37520 • Goat anti-rabbit or mouse AlexaFluor-488: Thermofisher #A11008 • Cell mask deep red AlexaFluor-647: Thermofisher #C10046 • Wash buffer, PBS: 20×PBS, Thermofisher

SMILES | DC50 [nM] | Dmax [%]
CNC(=O)COc1cc2cc(Nc3nc(N4CCC(O[C@H]5C[C@H](N6CCN(c7ccc8c(c7)n(C)c(=O)n8C7CCC(=O)NC7=O)[C@H](C)C6)C5)CC4)ncc3Cl)ccc2n(C(C)C)c1=O (stereo partly drawn) [Compound 13, 2-({6-[(5-chloro-2-{4-[(1r,3r)-3-[(3R)-4-[1-(2,6-dioxopiperidin-3-yl)-3-methyl-2-oxo-2,3-dihydro-1H-1,3-benzodiazol-5-yl]-3-methylpiperazin-1-yl]cyclobutoxy]piperidin-1-yl}pyrimidin-4-yl)amino]-2-oxo-1-(propan-2-yl)-1,2-dihydroquinolin-3-yl}oxy)-N-methylacetamide] | < 10 | ≥ 70
CNC(=O)COc1cc2cc(Nc3nc(N4CCC(O[C@H]5C[C@H](N6CCN(c7ccc8c(c7F)n(C(C)C)c(=O)n8C7CCC(=O)NC7=O)CC6)C5)CC4)ncc3Cl)ccc2n(C(C)C)c1=O (some centres unmarked) [Compound 28, 2-({6-[(5-chloro-2-{4-[(1r,3r)-3-{4-[1-(2,6-dioxopiperidin-3-yl)-4-fluoro-2-oxo-3-(propan-2-yl)-2,3-dihydro-1H-1,3-benzodiazol-5-yl]piperazin-1-yl}cyclobutoxy]piperidin-1-yl}pyrimidin-4-yl)amino]-2-oxo-1-(propan-2-yl)-1,2-dihydroquinolin-3-yl}oxy)-N-methylacetamide] | < 10 | ≥ 70
CNC(=O)COc1cc2cc(Nc3nc(N4CCC(O[C@H]5C[C@H](N6CCN(c7cc(F)c8c(c7F)n(C)c(=O)n8C7CCC(=O)NC7=O)CC6)C5)CC4)ncc3Cl)ccc2n(C(C)C)c1=O (some centres unmarked) [Compound 27, 2-({6-[(5-chloro-2-{4-[(1r,3r)-3-{4-[1-(2,6-dioxopiperidin-3-yl)-4,7-difluoro-3-methyl-2-oxo-2,3-dihydro-1H-1,3-benzodiazol-5-yl]piperazin-1-yl}cyclobutoxy]piperidin-1-yl}pyrimidin-4-yl)amino]-2-oxo-1-(propan-2-yl)-1,2-dihydroquinolin-3-yl}oxy)-N-methylacetamide] | < 10 | ≥ 70
CNC(=O)COc1cc2cc(Nc3nc(N4CCC(O[C@H]5C[C@H](N6CCN(c7cc(OC)c8c(c7)n(C)c(=O)n8C7CCC(=O)NC7=O)CC6)C5)CC4)ncc3Cl)ccc2n(C(C)C)c1=O (some centres unmarked) [Compound 25, 2-({6-[(5-chloro-2-{4-[(1r,3r)-3-{4-[1-(2,6-dioxopiperidin-3-yl)-7-methoxy-3-methyl-2-oxo-2,3-dihydro-1H-1,3-benzodiazol-5-yl]piperazin-1-yl}cyclobutoxy]piperidin-1-yl}pyrimidin-4-yl)amino]-2-oxo-1-(propan-2-yl)-1,2-dihydroquinolin-3-yl}oxy)-N-methylacetamide] | < 10 | –
CNC(=O)COc1cc2cc(Nc3nc(N4CCC(O[C@H]5C[C@H](N6CCN(c7cc8c(cc7OC)n(C7CCC(=O)NC7=O)c(=O)n8C)CC6)C5)CC4)ncc3Cl)ccc2n(C(C)C)c1=O (some centres unmarked) [Compound 15, 2-({6-[(5-chloro-2-{4-[(1r,3r)-3-{4-[1-(2,6-dioxopiperidin-3-yl)-6-methoxy-3-methyl-2-oxo-2,3-dihydro-1H-1,3-benzodiazol-5-yl]piperazin-1-yl}cyclobutoxy]piperidin-1-yl}pyrimidin-4-yl)amino]-2-oxo-1-(propan-2-yl)-1,2-dihydroquinolin-3-yl}oxy)-N-methylacetamide] | < 10 | 50 to 70
CNC(=O)COc1cc2cc(Nc3nc(N4CCC(O)(CC(=O)N5CCN(c6ccc7c(c6F)CN(C6CCC(=O)NC6=O)C7=O)CC5)CC4)ncc3Cl)ccc2n(C(C)C)c1=O (centres unmarked) [Compound 41, 2-{[6-({5-chloro-2-[4-(2-{4-[2-(2,6-dioxopiperidin-3-yl)-4-fluoro-1-oxo-2,3-dihydro-1H-isoindol-5-yl]piperazin-1-yl}-2-oxoethyl)-4-hydroxypiperidin-1-yl]pyrimidin-4-yl}amino)-2-oxo-1-(propan-2-yl)-1,2-dihydroquinolin-3-yl]oxy}-N-methylacetamide] | < 10 | ≥ 70
CNC(=O)COc1cc2cc(Nc3nc(N4CCC(O[C@H]5C[C@H](N6CCN(c7ccc8c(c7F)n(C)c(=O)n8C7CCC(=O)NC7=O)CC6)C5)CC4)ncc3Cl)ccc2n(C(C)C)c1=O (some centres unmarked) [Compound 8, 2-({6-[(5-chloro-2-{4-[(1r,3r)-3-{4-[1-(2,6-dioxopiperidin-3-yl)-4-fluoro-3-methyl-2-oxo-2,3-dihydro-1H-1,3-benzodiazol-5-yl]piperazin-1-yl}cyclobutoxy]piperidin-1-yl}pyrimidin-4-yl)amino]-2-oxo-1-(propan-2-yl)-1,2-dihydroquinolin-3-yl}oxy)-N-methylacetamide] | < 10 | ≥ 70
CNC(=O)COc1cc2cc(Nc3nc(N4CCC(O[C@H]5C[C@H](N6CC[C@@H](c7cc(C)c8c(c7F)CN([C@H]7CCC(=O)NC7=O)C8=O)[C@@H](F)C6)C5)CC4)ncc3Cl)ccc2n(C(C)C)c1=O [Compound 38, 2-({6-[(5-chloro-2-{4-[(1r,3r)-3-[(3R,4S)-4-{2-[(3S)-2,6-dioxopiperidin-3-yl]-4-fluoro-7-methyl-1-oxo-3H-isoindol-5-yl}-3-fluoropiperidin-1-yl]cyclobutoxy]piperidin-1-yl}pyrimidin-4-yl)amino]-1-isopropyl-2-oxoquinolin-3-yl}oxy)-N-methylacetamide] | < 10 | 50 to 70
CNC(=O)COc1cc2cc(Nc3nc(N4CCC(O[C@H]5C[C@H](N6CC[C@H](c7cc(C)c8c(c7F)CN([C@H]7CCC(=O)NC7=O)C8=O)[C@H](F)C6)C5)CC4)ncc3Cl)ccc2n(C(C)C)c1=O [Compound 39, 2-({6-[(5-chloro-2-{4-[(1r,3r)-3-[(3S,4R)-4-{2-[(3S)-2,6-dioxopiperidin-3-yl]-4-fluoro-7-methyl-1-oxo-3H-isoindol-5-yl}-3-fluoropiperidin-1-yl]cyclobutoxy]piperidin-1-yl}pyrimidin-4-yl)amino]-1-isopropyl-2-oxoquinolin-3-yl}oxy)-N-methylacetamide] | < 10 | ≥ 70
CNC(=O)COc1cc2cc(Nc3nc(N4CCC(O[C@H]5C[C@H](N6CCN(c7ccc8c(c7F)[C@@H](C)N([C@H]7CCC(=O)NC7=O)C8=O)[C@H](C)C6)C5)CC4)ncc3Cl)ccc2n(C(C)C)c1=O (single isomer, unassigned) [Compound 30] | 10 to 50 | < 50
CNC(=O)COc1cc2cc(Nc3nc(N4CCC(O[C@H]5C[C@H](N6CCN(c7cc(C)c8c(c7)n(C)c(=O)n8C7CCC(=O)NC7=O)CC6)C5)CC4)ncc3Cl)ccc2n(C(C)C)c1=O (some centres unmarked) [Compound 26, 2-({6-[(5-chloro-2-{4-[(1r,3r)-3-{4-[1-(2,6-dioxopiperidin-3-yl)-3,7-dimethyl-2-oxo-2,3-dihydro-1H-1,3-benzodiazol-5-yl]piperazin-1-yl}cyclobutoxy]piperidin-1-yl}pyrimidin-4-yl)amino]-2-oxo-1-(propan-2-yl)-1,2-dihydroquinolin-3-yl}oxy)-N-methylacetamide] | 10 to 50 | 50 to 70
CNC(=O)COc1cc2cc(Nc3nc(N4CCC(O[C@H]5C[C@H](N6CCN(c7ccc8nn(C9CCC(=O)NC9=O)cc8c7)CC6)C5)CC4)ncc3Cl)ccc2n(C(C)C)c1=O (some centres unmarked) [Compound 22, 2-({6-[(5-chloro-2-{4-[(1r,3r)-3-{4-[2-(2,6-dioxopiperidin-3-yl)-2H-indazol-5-yl]piperazin-1-yl}cyclobutoxy]piperidin-1-yl}pyrimidin-4-yl)amino]-2-oxo-1-(propan-2-yl)-1,2-dihydroquinolin-3-yl}oxy)-N-methylacetamide] | 10 to 50 | 50 to 70
